Assay results taken from patent US20230305022A1, “Biomarkers in Primary Biliary Cholangitis” (University of Newcastle upon Tyne, priority 2020, published 2023).

System: Ep-CAM
Test: Discovery serum proteomics (Olink), UDCA-treated vs treatment-naïve PBC patients
Format: in vivo, human
Conditions: serum NPX, UDCA 13-15 mg/kg/day for >12 months (n=416) vs treatment-naïve (n=68)
Experimental: UDCA-Treated PBC: These were PBC patients who had been taking UDCA at a therapeutic dose (13-15 mg/kg/day) for greater than 12 months. Clinical parameters, including serum biochemistry were available both pre-treatment and after 12 months of UDCA therapy. This allowed all UDCA-treated patients to be assigned to responder and non-responder groups using current standard criteria including Paris 1 (Alanine Transaminase (ALT)>2× upper limit of normal [ULN], Alkaline Phosphatase (ALP)>3×ULN, Bilirubin>1×ULN) (Corpechot et al., 2008), Paris 2 (ALP and ALT both >1.5×ULN)(Corpechot et al., 2011) and POISE (ALP <1.67×ULN and bilirubin <1×ULN) (Nevens et al., 2016). UK-PBC risk score 10-year predicted survival was also calculated for UDCA-treated patients after therapy. Patients taking fibrates and or OCA were not included in the current study. […]
Blood was collected under the approval of the Human Tissue Authority (HTA) by the UK-PBC tissue Bioresource with written informed patient consent obtained in accordance with research and ethics committee (REC) approval (14/NW/1146). […] 4 μl serum was analysed for 368 analytes from 4 distinct panels including Cardiovascular II &Ill, Inflammation and Oncology II (https://www.olink.com/). […] In turn, this was amplified by microfluidic quantitative PCR with normalised protein expression (NPX) data generated by a ΔΔct calculation method. […]

SMILES: C[C@H](CCC(=O)O)[C@H]1CC[C@H]2[C@@H]3[C@@H](O)C[C@@H]4C[C@H](O)CC[C@]4(C)[C@H]3CC[C@]12C [UDCA, Ursodeoxycholic acid]
- log Fold Change of serum protein, UDCA Tx vs Naïve Tx: −0.84
